The source of these data is US10640495B2, “Heterocycle derivatives having TrkA inhibitory activity” (Shionogi & Co., Ltd., priority 2015, dated 2020).

Where only a bound is given, the exact number is not on record here.

Sequence of human TrkA (P04629 440-796): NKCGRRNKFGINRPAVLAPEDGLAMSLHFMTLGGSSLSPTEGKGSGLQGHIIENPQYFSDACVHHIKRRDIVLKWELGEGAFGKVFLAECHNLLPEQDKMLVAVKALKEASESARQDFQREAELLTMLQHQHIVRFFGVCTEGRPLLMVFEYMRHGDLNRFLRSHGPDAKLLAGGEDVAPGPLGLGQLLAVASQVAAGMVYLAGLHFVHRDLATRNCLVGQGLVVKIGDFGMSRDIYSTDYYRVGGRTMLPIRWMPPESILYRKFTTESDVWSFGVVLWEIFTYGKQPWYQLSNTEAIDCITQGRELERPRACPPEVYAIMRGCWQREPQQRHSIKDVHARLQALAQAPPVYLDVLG

In one assay the target is human TrkA (Homo sapiens (Human), UniProt P04629). The assay is described as follows: Human TrkA inhibition assay (Test Example 2). The assay is classed as biochemical. The settings on record: Table 152, human TrkA inhibition; read-out: IC50_nM. In outline:
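Recombinant TrkA (1 nmol/L) was preincubated 15 min at room temperature with compound in HEPES/MgCl2/DTT buffer, then reacted with FL-peptide 27 (1.5 μmol/L) and ATP (500 μmol/L) for 120 min at 37 °C. After EDTA stop, substrate phosphorylation was read by microfluidic mobility shift. IC50 came from logistic regression over 3-fold dilution series.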
Turning to `COCC[C@H]1C[C@H](NC(=O)Nc2c(C)c(-c3cnn(C)c3)nn2-c2ccccc2)[C@@H](c2ccc(F)c(F)c2)O1` [Compound I-24], the IC50 is above 1000 nM.

Still in this assay, the particulars now being: Table 153, human TrkA inhibition; read-out: IC50.
Regarding `COCCN1C[C@@H](NC(=O)Nc2c(C)c(-c3cncc(N=S(C)(C)=O)c3)nn2-c2ccccc2)[C@H](c2ccc(F)c(F)c2)O1` (racemic) [Compound I-85], the IC50 is below 100 nM.
Turning to `CNC(=O)c1cc(-c2nn(-c3ccccc3)c(NC(=O)N[C@@H]3CN(Cc4csnn4)O[C@H]3c3ccc(F)c(F)c3)c2C)cn(C)c1=O` (racemic) [Compound I-151], the IC50 is below 100 nM.
Take `COCCN1C[C@@H](NC(=O)Nc2c(C)c(-c3cnc4c(cnn4C)c3)nn2-c2ccccc2)[C@H](c2cnc(F)c(F)c2)O1` (racemic) [Compound I-67]: the IC50 is below 100 nM.
Take `CNC(=O)c1cc(-c2nn(-c3ccccc3)c(NC(=O)N[C@@H]3CN(CCOC)O[C@H]3c3ccccc3)c2C)cn(C)c1=O` (racemic) [Compound I-163]: the IC50 is below 100 nM.
Still for that read-out and setting: to `COCCN1C[C@@H](NC(=O)Nc2c(C)c(C3=CCN(c4ncc(Cl)cn4)CC3)nn2-c2ccccc2)[C@H](c2ccc(F)c(F)c2)O1` (racemic) [Compound I-153] belongs below 100 nM; to `COCCN1C[C@@H](NC(=O)Nc2c(C)c(-c3cnn(C)c3)nn2-c2ccccc2)[C@H](c2ccnc(F)c2)O1` (racemic) [Compound I-91], below 100 nM.

Still in this assay, the particulars now being: Table 154, human TrkA inhibition; read-out: IC50.
With `COCCN1C[C@@H](NC(=O)Nc2c(C)c(-c3cnc(OC)c(C#N)c3)nn2-c2ccccc2)[C@H](c2ccnc(F)c2)O1` (racemic) [Compound I-307], the IC50 is below 100 nM.
With `COCCN1C[C@@H](NC(=O)Nc2c(C)c(-c3cnc(OC)nc3)nn2-c2ccccc2)[C@H](c2ccc(F)cc2)O1` (racemic) [Compound I-247], the IC50 is below 100 nM.

Still in this assay, the particulars now being: Table 155, human TrkA inhibition; read-out: IC50.
As for `COCCN1C[C@@H](NC(=O)Nc2c(C)c(-c3ccc(=O)n(C)c3)nn2-c2ccccc2)[C@H](c2ccnc(F)c2)O1` (racemic) [Compound I-496], the IC50 was below 100 nM.
Regarding `CNC(=O)c1cc(-c2nn(-c3ccccc3)c(NC(=O)N[C@@H]3CN(CCOC)O[C@H]3c3ccc(F)c(F)c3)c2C)cnc1OC` [Compound I-391], the IC50 is below 100 nM.
As to `COCCN1C[C@@H](NC(=O)Nc2c(C)c(-c3cnc(OC4CCN(C)CC4)nc3)nn2-c2ccccc2)[C@H](c2ccc(F)c(F)c2)O1` [Compound I-464], the IC50 was below 100 nM.
On to `COCCN1C[C@@H](NC(=O)Nc2c(C)c(-c3cnc(C)nc3)nn2-c2ccccc2)[C@H](c2cnc(F)c(F)c2)O1` [Compound I-358], for which the IC50 was below 100 nM.
For `COCCN1C[C@@H](NC(=O)Nc2c(C)c(-c3cnc(OC)cn3)nn2-c2ccccc2)[C@H](c2ccnc(F)c2)O1` (racemic) [Compound I-352], the IC50 is below 100 nM.
The same measure, in the same setting: to `COCCN1C[C@@H](NC(=O)Nc2c(C)c(-c3cnc(C4[C@@H]5CC[C@H]4COC5)nc3)nn2-c2ccccc2)[C@H](c2ccnc(F)c2)O1` (mixture of isomers) [Compound I-438] belongs below 100 nM; to `COCCOc1ncc(-c2nn(-c3ccccc3)c(NC(=O)N[C@@H]3CN(CCOC)O[C@H]3c3ccnc(F)c3)c2C)cn1` (racemic) [Compound I-511], below 100 nM.
The same measure, in the same setting: as for `COCCN1C[C@@H](NC(=O)Nc2c(C)c(-c3cnc(N4CCN(C)C(=O)C4)nc3)nn2-c2ccccc2)[C@H](c2ccnc(F)c2)O1` (racemic) [Compound I-488], the figure is below 100 nM.

The same assay, now with this note: Table 156, human TrkA inhibition; read-out: IC50.
For `CCN1C[C@@H](NC(=O)Nc2c(C)c(OCC3CNCCO3)nn2-c2ccccc2)[C@H](c2ccc(F)c(F)c2)O1` (stereo partly shown) [Compound I-537], the IC50 is below 100 nM.
For `COCCN1C[C@@H](NC(=O)Nc2c(C)c(C)nn2-c2ccccc2)[C@H](c2cnc(F)c(F)c2)O1` [Compound I-520], the IC50 is below 100 nM.
The same measure, in the same setting: as for `COCCN1C[C@@H](NC(=O)Nc2c(C)c(C(F)(F)F)nn2-c2ccccc2)[C@H](c2ccnc(F)c2)O1` (racemic) [Compound I-534], the figure is below 100 nM; as for `CCN1C[C@@H](NC(=O)Nc2c(C)c(OCC3CCNCC3)nn2-c2ccccc2)[C@H](c2ccc(F)c(F)c2)O1` (racemic) [Compound I-559], below 100 nM; as for `CCOc1nn(-c2ccccc2)c(NC(=O)N[C@@H]2CN(CCOC)O[C@H]2c2ccc(F)c(F)c2)c1C` [Compound I-519], below 100 nM.

The same assay, now with this note: Table 157, human TrkA inhibition; read-out: IC50.
Turning to `COCCN1C[C@@H](NC(=O)Nc2c(C)c(-c3ccnc(CO)c3)nn2-c2ccccc2)[C@H](c2ccc(F)c(F)c2)O1` [Compound I-617], the IC50 is below 100 nM.
Same read-out and setting: to `CCN1C[C@@H](NC(=O)Nc2c(C)c(OCCC3CCNCC3)nn2-c2ccccc2)[C@H](c2ccc(F)c(F)c2)O1` (racemic) [Compound I-671] belongs below 100 nM; to `CCN1C[C@@H](NC(=O)Nc2c(C)c(-c3ccc4nccn4c3)nn2-c2ccccc2)[C@H](c2ccc(F)c(F)c2)O1` (racemic) [Compound I-624], below 100 nM.
Take `COCCN1C[C@@H](NC(=O)Nc2c(C)c(-c3cnc(N4CC[C@@H](OC)C4)nc3)nn2-c2ccccc2)[C@H](c2ccnc(F)c2)O1` [Compound I-585]: the IC50 was below 100 nM.
As to `CCN1C[C@@H](NC(=O)Nc2c(C)c(OCCC3CCN(C(=O)OC(C)(C)C)C3)nn2-c2ccccc2)[C@H](c2ccc(F)c(F)c2)O1` (stereo partly shown) [Compound I-597], the IC50 is below 100 nM.
As for `Cc1c(-c2cccnc2)nn(-c2ccccc2)c1NC(=O)N[C@@H]1CN(CC(F)F)O[C@H]1c1ccc(F)c(F)c1` (racemic) [Compound I-629], the IC50 was below 100 nM.
As to `COCCN1C[C@@H](NC(=O)Nc2c(C)c(-c3cnc(N4CC[C@@H](N(C)C)C4)nc3)nn2-c2ccccc2)[C@H](c2ccnc(F)c2)O1` [Compound I-587], the IC50 was below 100 nM.
Consider `CCCCN1C[C@@H](NC(=O)Nc2c(C)c(-c3cnc(OC)nc3)nn2-c2ccccc2)[C@H](c2ccc(F)c(F)c2)O1` (racemic) [Compound I-677], for which the IC50 was below 100 nM.

Staying with this assay, now noted: human TrkA 1 nmol/L, ATP 500 μmol/L, 120 min at 37° C.; read-out: IC50 values (TrkA phosphorylation inhibition).
Turning to `COCCN1C[C@@H](NC(=O)Nc2c(C)c(-c3cnn(C)c3)nn2C2CCC2)[C@H](c2ccc(F)c(F)c2)O1` (racemic) [Compound I-146], the IC50 amounted to 330 nM.
Consider `COCCN1C[C@@H](NC(=O)Nc2c(C)c(-c3cnc(OC)c(C(=O)NC4CCOCC4)c3)nn2-c2ccc(F)cc2)[C@H](c2ccnc(F)c2)O1` (racemic) [Compound I-239], for which the IC50 was 3.8 nM.
As to `COCCN1C[C@@H](NC(=O)Nc2c(C)c(-c3ccc(N4CCC(O)CC4)nc3)nn2-c2ccccc2)[C@H](c2ccnc(F)c2)O1` (racemic) [Compound I-278], the IC50 was determined as 3.7 nM.
For the compound `COCCN1C[C@@H](NC(=O)Nc2c(C)c(-c3cnc4c(c3)oc(=O)n4C)nn2-c2ccccc2)[C@H](c2ccnc(F)c2)O1` (racemic) [Compound I-122], the IC50 came to 2.7 nM.
In the case of `COCCN1C[C@@H](NC(=O)Nc2c(C)c(-c3cnc4ncn(CC(F)(F)F)c4c3)nn2-c2ccccc2)[C@H](c2ccnc(F)c2)O1` (racemic) [Compound I-241], the IC50 came to 3.2 nM.
Consider `COCCN1C[C@@H](NC(=O)Nc2c(C)c(-c3ccc4nc(C)nn4c3)nn2-c2ccccc2)[C@H](c2ccnc(F)c2)O1` (racemic) [Compound I-159], for which the IC50 came to 2.1 nM.
With `COCC[C@@H]1C[C@@H](NC(=O)Nc2c(C)c(-c3cnn(C)c3)nn2-c2ccccc2)[C@H](c2ccc(F)c(F)c2)O1` [Compound I-25], the IC50 was determined as 2.9 nM.
